# Where two headings read alike, the source gives them in different places.
# Key:
# MELK = MELK (Homo sapiens, UniProt Q14680); test: Kinase assay: MELK activity, phosphorylation of FITC-labeled histone H3 peptide measured by IMAP fluorescence polarization; format: biochemical; details: read-out: IC50 (μM) (kinase assay)
# Outline: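 Fluorescence polarization was measured 0.5 h (room temperature) after quenching with threefold volume of progressive binding solution. Test compounds from 12.5 mM DMSO stocks were assayed at 1% DMSO.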
# T47D cells = test: Cell-based assay: anti-proliferative activity, Cell Counting Kit-8, 72 hours (T47D); details: Homo sapiens, T47D, 72 h
# Outline: (§1)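 Proliferation read with Cell Counting Kit-8 after 72 hours of inhibitor treatment, from seeding of 2,000–3,000 cells/well. Lines: T47D, A549, BT-549; HT-1197, lacking MELK by western blot, served as negative control. IC50 derived.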
# A549 cells = test: Cell-based assay: anti-proliferative activity, Cell Counting Kit-8, 72 hours (A549); details: Homo sapiens, A549, 72 h, 72 hours
# Experimental: 100 micro-L of cell suspension was seeded onto 96-well microtiter plate (ViewPlate-96FTC, PerkinElmer). The initial cell concentration of T47D, A549, BT-549, and HT-1197 were 3,000 cells/well, 2,000 cells/well and 2,500 cells/well, respectively. Cellular growth was determined using Cell Counting Kit-8 (DOJINDO) at 72 hours after the exposure of the candidate inhibitors. […] Accurate IC50 values were calculated as described previously.
# HT-1197 cells = test: Cell-based assay: anti-proliferative activity, Cell Counting Kit-8, 72 hours (HT-1197, negative control without MELK expression); details: Homo sapiens, HT1197, 72 h, HT1197 cells (negative control, no MELK expression), 72 hours
# Outline: as §1
# DU4475 cells = test: Cell-based assay: anti-proliferative activity, Cell Counting Kit-8, 72 hours (DU4475); details: Homo sapiens, DU-4475, 72 h
# [1] = 50 micro-M ATP, FITC-labeled histone H3 peptide substrate, IMAP fluorescence polarization
# Chain of MELK (Q14680 whole entry, looked up): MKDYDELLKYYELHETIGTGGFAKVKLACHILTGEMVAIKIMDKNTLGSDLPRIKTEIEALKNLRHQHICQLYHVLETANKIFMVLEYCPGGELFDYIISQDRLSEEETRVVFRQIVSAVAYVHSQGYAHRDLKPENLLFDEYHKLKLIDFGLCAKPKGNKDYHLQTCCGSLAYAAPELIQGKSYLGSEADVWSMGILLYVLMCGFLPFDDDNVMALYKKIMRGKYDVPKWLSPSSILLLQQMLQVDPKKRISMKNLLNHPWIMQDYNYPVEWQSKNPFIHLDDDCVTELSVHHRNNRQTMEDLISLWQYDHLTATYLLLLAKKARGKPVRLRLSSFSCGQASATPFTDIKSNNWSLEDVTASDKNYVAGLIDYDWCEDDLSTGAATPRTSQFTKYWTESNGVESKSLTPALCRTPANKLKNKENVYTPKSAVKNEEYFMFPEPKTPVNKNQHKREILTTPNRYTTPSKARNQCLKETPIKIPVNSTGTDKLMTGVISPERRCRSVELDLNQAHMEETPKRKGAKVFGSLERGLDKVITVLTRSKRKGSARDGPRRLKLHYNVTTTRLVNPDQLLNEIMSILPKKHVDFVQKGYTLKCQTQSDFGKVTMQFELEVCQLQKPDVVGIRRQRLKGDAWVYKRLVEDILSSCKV
Structure (SMILES),IC50 (MELK) [µM],IC50 (T47D cells) [µM],IC50 (A549 cells) [µM],IC50 (HT-1197 cells) [µM],IC50 (DU4475 cells) [µM],IC50 (MELK; [1]) [µM]
"CN[C@H]1CC[C@H](n2cc(Nc3c(C(=O)C4CC4)cnc4ccc(-c5cc(Cl)c(O)c(Cl)c5)cc34)cn2)CC1 [Example 705, Cyclopropyl{6-(3,5-dichloro-4-hydroxyphenyl)-4-[1-(trans-4-(methylamino)cyclohexyl)-1H-pyrazol-4-ylamino]quinolin-3-yl}methanone]",0.0017,0.24,1.7,10,0.072,–
"CN(C)C1CCN(c2ccc(Nc3c(C(=O)C4CC4)cnc4ccc(-c5cc(Cl)c(O)c(Cl)c5)cc34)cn2)C1 (stereo not shown) [Example 690, cyclopropyl(6-(3,5-dichloro-4-hydroxyphenyl)-4-(6-(3-(dimethylamino)pyrrolidin-1-yl)pyridin-3-ylamino)quinolin-3-yl)methanone]",0.0047,0.25,0.3,4,0.19,–
"CC(C)C(=O)c1cnc2ccc(-c3cc(F)c(O)c(Cl)c3)cc2c1Nc1ccc(N2CCNCC2)nc1 [Example 674, 1-(6-(3-chloro-5-fluoro-4-hydroxyphenyl)-4-(6-(piperazin-1-yl)pyridin-3-ylamino)quinolin-3-yl)-2-methylpropan-1-one]",0.0069,0.11,0.46,2.4,0.15,–
"CN1CCN(Cc2ccc(Nc3c(C(=O)C4CC4)cnc4ccc(-c5cc(Cl)c(O)c(Cl)c5)cc34)cn2)CC1 [Example 682, cyclopropyl(6-(3,5-dichloro-4-hydroxyphenyl)-4-(6-((4-methylpiperazin-1-yl)methyl)pyridin-3-ylamino)quinolin-3-yl)methanone]",0.018,0.55,0.7,14,0.32,–
CN1CCN(C[C@H]2CC[C@H](Nc3c(C(=O)C4CC4)cnc4ccc(-c5cc(F)c(O)c(Cl)c5)cc34)CC2)CC1 [Example 636],–,0.16,0.2,0.94,0.18,–
CC(=O)c1cnc2ccc(-c3cc(Cl)c(O)c(Cl)c3)cc2c1Nc1ccc(N2CCNCC2)nc1 [Example 702],0.0014,0.046,0.14,2.4,0.044,–
"CN(CCO)C[C@H]1CC[C@H](Nc2c(C(=O)C3CC3)cnc3ccc(-c4cc(F)c(O)c(Cl)c4)cc23)CC1 [Example 632, (6-(3-chloro-5-fluoro-4-hydroxyphenyl)-4-((trans-4-(((2-hydroxyethyl)(methyl)amino)methyl)cyclohexyl)amino)quinolin-3-yl)(cyclopropyl)methanone]",0.0031,0.069,0.1,0.72,0.069,–
"COc1cc(-c2ccc3ncc(C(C)=O)c(Nc4ccc(CN5CCN(C)CC5)cc4)c3c2)cc(Cl)c1O [Example 653, 1-(6-(3-chloro-4-hydroxy-5-methoxyphenyl)-4-(4-((4-methylpiperazin-1-yl)methyl)phenylamino)quinolin-3-yl)ethanone]",–,1.3,0.5,1.9,0.32,–
"CN(C)C1CCN(Cc2ccc(Nc3c(C(=O)C4CC4)cnc4ccc(-c5cc(Cl)c(O)c(Cl)c5)cc34)cc2)C1 (stereo not shown) [Example 694, cyclopropyl(6-(3,5-dichloro-4-hydroxyphenyl)-4-(4-((3-(dimethylamino)pyrrolidin-1-yl)methyl)phenylamino)quinolin-3-yl)methanone]",–,0.41,0.15,7.5,0.12,–
"CN(C)Cc1ccc(-c2c(C(=O)C3CC3)cnc3ccc(-c4cc(Cl)c(O)c(Cl)c4)cc23)cc1 [Example 431, cyclopropyl(6-(3,5-dichloro-4-hydroxyphenyl)-4-(4-((dimethylamino)methyl)phenyl)quinolin-3-yl)methanone]",–,0.97,0.59,7.5,–,0.0039
"O=C(c1cnc2ccc(-c3cc(F)c(O)c(Cl)c3)cc2c1N1CCN(CCN2CCCC2)C(=O)C1)C1CC1 [Example 440, 4-(6-(3-chloro-5-fluoro-4-hydroxyphenyl)-3-(cyclopropanecarbonyl)quinolin-4-yl)-1-(2-(pyrrolidin-1-yl)ethyl)piperazin-2-one]",–,1.1,5.1,10,–,0.0044
"CS(=O)(=O)c1cnc2ccc(-c3cc(F)c(O)c(Cl)c3)cc2c1N1CCC(CN2CCCC2)CC1 [Example 407, 2-chloro-6-fluoro-4-(3-(methylsulfonyl)-4-(4-(pyrrolidin-1-ylmethyl)piperidin-1-yl)quinolin-6-yl)phenol]",–,0.75,3.8,6.5,–,0.0051
"CC(=O)c1cnc2ccc(-c3cc(Cl)c(O)c(Cl)c3)cc2c1N[C@H]1CC[C@H](CCN(C)C)CC1 [Example 739, 1-(6-(3,5-dichloro-4-hydroxyphenyl)-4-((trans-4-(2-(dimethylamino)ethyl)cyclohexyl)amino)quinolin-3-yl)ethanone]",–,0.14,–,4,0.099,–
COc1cc(-c2ccc3ncc(S(C)(=O)=O)c(N[C@H]4CC[C@H](CN(C)C)CC4)c3c2)cc(Cl)c1O [Example 422],–,0.7,0.65,4.4,–,0.0041
"COc1cc(-c2ccc3ncc(C(=O)C4CC4)c(Nc4ccc(CN(C)C)cn4)c3c2)cc(Cl)c1O [Example 429, (6-(3-chloro-4-hydroxy-5-methoxyphenyl)-4-(5-((dimethylamino)methyl)pyridin-2-ylamino)quinolin-3-yl)(cyclopropyl)methanone]",–,3.8,5.1,19,–,0.019
"CCN(CC)C1CCC(Nc2c(C(=O)C3CCCC3)cnc3ccc(-c4ccc(O)c(Cl)c4)cc23)CC1 (stereo not shown) [Example 385, (6-(3-chloro-4-hydroxyphenyl)-4-(4-(diethylamino)cyclohexylamino)quinolin-3-yl)(cyclopentyl)methanone]",–,1.7,0.94,1.9,–,0.019
O=C(c1cnc2ccc(-c3cc(Cl)c(O)c(Cl)c3)cc2c1-c1ccc(N2CCNCC2)nc1)C1CC1 [Example 459],–,0.83,1.9,10,–,0.0091
CN(C)CC1CCN(c2c(C(=O)C3CC3)cnc3ccc(-c4ccc5cc(O)ccc5c4)cc23)CC1 [Example 449],–,1.8,0.64,3.3,–,0.014
"COc1cc(-c2ccc3ncc(C(C)=O)c(Nc4ccc(CN(C)C)cc4)c3c2)cc(Cl)c1O [Example 391, 1-(6-(3-chloro-4-hydroxy-5-methoxyphenyl)-4-(4-((dimethylamino)methyl)phenylamino)quinolin-3-yl)ethanone]",–,0.12,1,4.2,–,0.0037
CN(C)C1CCN(C[C@H]2CC[C@H](Nc3c(C(=O)C4CC4)cnc4ccc(-c5cc(Cl)c(O)c(Cl)c5)cc34)CC2)C1 (stereo partly shown) [Example 663],–,0.32,0.22,4.6,0.17,–

# Reference: US9120749B2, “Quinoline derivatives and MELK inhibitors containing the same” (ONCOTHERAPY SCIENCE, INC., priority 2010, dated 2015)
